≈ marks a conversion by molar mass, not a printed value.
How the values were obtained:
[1] = Inhibition of Mycobacterium PknG
[2] = target: T1, Phosphotyrosine protein phosphatase (Mycobacterium tuberculosis, UniProt A0A045ISB3); assay: Inhibition of Mycobacterium tuberculosis Protein Tyrosine Phosphatase B
T1 sequence (A0A045ISB3 whole entry): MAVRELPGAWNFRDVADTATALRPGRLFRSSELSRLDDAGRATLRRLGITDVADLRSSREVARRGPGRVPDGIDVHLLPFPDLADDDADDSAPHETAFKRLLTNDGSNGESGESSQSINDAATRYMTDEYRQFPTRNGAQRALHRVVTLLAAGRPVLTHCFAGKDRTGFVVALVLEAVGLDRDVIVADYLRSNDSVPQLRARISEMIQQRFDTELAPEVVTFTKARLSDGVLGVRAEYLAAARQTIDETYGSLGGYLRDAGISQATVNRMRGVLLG

[3] = test system: Mycobacterium tuberculosis; assay: Antimycobacterial activity against Mycobacterium tuberculosis H37Rv assessed as inhibition of mycobacterial growth at 12 ug/ml relative to control; assay type: functional
[4] = test system: Mycobacterium tuberculosis; assay: Antimycobacterial activity against Mycobacterium tuberculosis H37Rv ATCC 27294 by Alamar Blue staining-based broth microdilution assay; assay type: functional
[5] = test system: Mycobacterium tuberculosis; assay: Antimycobacterial activity against Mycobacterium tuberculosis H37Rv; assay type: functional, organism-based
[6] = target: T2, Enoyl-[acyl-carrier-protein] reductase [NADH] (Mycobacterium tuberculosis) (UniProt P9WGR1); assay: Inhibition of Mycobacterium tuberculosis InhA enzyme at 10 uM relative to control
T2 sequence (whole entry): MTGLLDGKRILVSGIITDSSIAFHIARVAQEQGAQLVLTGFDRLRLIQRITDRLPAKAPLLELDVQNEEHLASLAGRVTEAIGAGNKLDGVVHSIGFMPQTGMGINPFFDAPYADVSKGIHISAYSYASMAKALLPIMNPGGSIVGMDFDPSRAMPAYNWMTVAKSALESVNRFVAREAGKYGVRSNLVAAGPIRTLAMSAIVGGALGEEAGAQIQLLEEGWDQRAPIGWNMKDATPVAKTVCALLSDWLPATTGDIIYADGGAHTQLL

[7] = test system: Mycobacterium tuberculosis; assay: Antimycobacterial activity against Mycobacterium tuberculosis H37Rv by broth dilution method; assay type: functional
[8] = test system: Mycolicibacterium smegmatis; assay: Antimycobacterial activity against Mycobacterium smegmatis MC2 155 by broth dilution method; assay type: functional
[9] = test system: Mycobacterium tuberculosis; assay: Antimycobacterial activity against Mycobacterium tuberculosis H37Rv by Alamar Blue assay; assay type: functional
[10] = test system: Mycobacterium tuberculosis; assay: Antimycobacterial activity against Mycobacterium tuberculosis assessed as diameter of inhibition zone at 40 ug/disc; assay type: functional; conditions: read-out: IZ
[11] = test system: Mycobacterium tuberculosis; assay: Antimycobacterial activity against Mycobacterium tuberculosis incubated for overnight by NCCLS broth dilution method; assay type: functional
[12] = test system: Mycobacterium tuberculosis; assay: Antimycobacterial activity against Mycobacterium tuberculosis H37Ra; assay type: functional
[13] = test system: Mycolicibacterium smegmatis; assay: Antimycobacterial activity against Mycobacterium smegmatis; assay type: functional

With `CC[C@H](C)/C=C(C)/C=C/C1=CC2=C(Cl)C(=O)[C@](C)(OC(C)=O)C(=O)C2=CO1` [SCLEROTIORIN] the IC50 [1] was 76.5 µM.

In the case of `CC(=O)c1cc(C)c(O)c(Cc2c(O)cc(-c3ccc(O)c(O)c3)oc2=O)c1O`, the IC50 [2] is reported as 160 nM.

For `CC(=O)c1cc(C)c(O)c(CC2=C(C)C(=O)C(O)=C(C)C2=O)c1O`, the IC50 [2] was 1370 nM.

Compound `C/C=C1\NC(=O)[C@H](Cc2ccccc2)NC(=O)[C@@H](C(C)C)NC(=O)[C@@H]([C@@H](C)CC)NC(=O)[C@H](NC(=O)[C@H](NC(=O)[C@H](CCCN)NC(=O)[C@H]2CCCN2C(=O)[C@H](NC(=O)[C@@H](NC(=O)[C@@H](NC(=O)[C@H](NC(=O)CCCC(C)C)C(C)C)[C@@H](C)O)C(C)C)C(C)C)[C@@H](C)CC)[C@@H](C)OC(=O)[C@H](C(C)C)NC1=O` has an inhibition at 12 µg/mL [3] of 67%.

In the case of `CCCCCCC[C@@H]1C[C@@H]2CCC3=C(C(=O)OC(C)CCCCCC[C@@H]4C[C@@H]5CC[C@@H]6C[C@H](C)NC(=N4)N65)C(C)N=C(N1)N32` (stereo not given in full), the MIC [4] is reported as 5.23 µM (≈ 3.18 µg/mL).

`CCCCCCCc1cc(O)c(CCCCCC)c(=O)o1` [PSEUDOPYRONINES B] gave an MIC [5] of 2.65 to 5.31 µM (≈ 0.78 to 1.56 µg/mL) and an inhibition [6] of 12%.

In the case of `C=CC(C)(C)n1cc(C[C@@H]2NC(=O)[C@H](C/C=C/C)NC(=O)[C@H](CC(C)C)N3C(=O)[C@H](C[C@H](C)[C@H]3O)N(C)C(=O)[C@H](C)NC(=O)[C@H](Cc3ccc(O)c([N+](=O)[O-])c3)NC(=O)[C@H](CC(C)C)N(C)C2=O)c2ccccc21`, the MIC [7] is reported as 9.8 nM (≈ 0.0101 µg/mL).

Compound `C/C=C/C[C@@H]1NC(=O)[C@H](CC(C)C)N2C(=O)[C@H](C[C@H](C)[C@@H]2O)N(C)C(=O)[C@H](C)NC(=O)[C@H](Cc2ccc(O)c([N+](=O)[O-])c2)NC(=O)[C@H](CC(C)C)N(C)C(=O)[C@H](Cc2cn(C(C)(C)[C@H]3CO3)c3ccccc23)NC1=O` has an MIC [8] of 0.12 µM (≈ 0.125 µg/mL).

In the case of `C/C=C/C[C@@H]1NC(=O)[C@H](CC(C)C)N2C(=O)[C@H](C[C@H](C)[C@H]2O)N(C)C(=O)[C@H](C)NC(=O)[C@H](Cc2ccc(O)c([N+](=O)[O-])c2)NC(=O)[C@H](CC(C)C)N(C)C(=O)[C@H](Cc2cn(C(C)(C)[C@H]3CO3)c3ccccc23)NC1=O`, the MIC [8] is reported as 0.12 µM (≈ 0.125 µg/mL).

With `C[C@@H]1C[C@H](C)C(=O)/C=C/[C@@H]2[C@@H](O)[C@H]3OC4=C(C(=O)O[C@@]42C[C@H]3C)C1=O` (stereo in doubt; (-)-145) the MIC ([9]; Mycobacterium tuberculosis, H37Rv, read-out: MIC) was 3.6 µM (≈ 1.25 µg/mL).

Work on `C[C@@H]1C[C@H](C)C(=O)/C=C/[C@@H]2[C@@H](O)[C@H]3OC4=C(C(=O)O[C@@]42C[C@H]3C)C1=O` (stereo in doubt; (+)-145) yielded an MIC [9] of 7.2 µM (≈ 2.49 µg/mL).

Compound `COc1cc(OC)c2c(O)c3c(=O)cc(C)oc3c(-c3c4cc(O)cc(OC)c4c(O)c4c(=O)cc(C)oc34)c2c1` has a zone of inhibition at 40 µg/disc [10] of 11 mm.

With `CN1C(=O)[C@]23CC4=CC=C[C@H](O)[C@H]4N2C(=O)[C@@]1(CO)SS3` [GLIOTOXIN] the MIC [11] was < 0.03 µM.

Compound `CCCCCC(=O)c1c(O)cc(CCCCC)oc1=O` has an MIC [5] of 2.79 µM (≈ 0.782 µg/mL) and an inhibition [6] of 68%.

`C1=C2CCCC/C=C\C=C\CCN3CC[C@@H]4[C@H](CCCCCC/C=C\C=C/CCN(C2)C[C@H]14)C3` (relative stereo) [HALICYCLAMINE A] gave an MIC [12] of 2.16 to 10.8 µM (≈ 1 to 5.01 µg/mL) and an MIC [13] of 2.16 to 10.8 µM (≈ 1 to 5.01 µg/mL).

Compound `CCC(C)C(=O)N[C@H](Cc1ccccc1)C(=O)NC1C(=O)N[C@H](CC(C)C)C(=O)N[C@H](Cc2ccccc2)C(=O)N[C@H](CC(C)C)C(=O)N[C@H]([C@H](C)O)C(=O)N[C@@H](CO)C(=O)O[C@@H]1C` (stereo not given in full) has an inhibition at 12 µg/mL [3] of 83%.

For `C=CC(C)(C)n1cc(C[C@@H]2NC(=O)[C@H](C/C=C/C)NC(=O)[C@H](CC(C)C)N3C(=O)[C@H](C[C@H](C)[C@@H]3O)N(C)C(=O)[C@H](C)NC(=O)[C@H](Cc3ccc(O)c([N+](=O)[O-])c3)NC(=O)[C@H](CC(C)C)N(C)C2=O)c2ccccc21`, the MIC [7] was 9.8 nM (≈ 0.0101 µg/mL).

Reference: ChEMBL document CHEMBL4400517, “Marine natural products as potential anti-tubercular agents” (Eur J Med Chem, 2019)
